Source: PubChem BioAssay AID1259407 (Chemical Carcinogenesis Research Information System (CCRIS), 2018)
Calls of active or inactive are those of the source. The rule behind the calls is not given here.

Tested on: CCRIS mutagenicity, Ames/micronucleus/aberration tests
Assay: CCRIS mutagenicity studies
[1] = Test System: AMES SALMONELLA TYPHIMURIUM, Strain/Indicator: TA97, Metabolic Activation: NONE, Method: STANDARD PLATE
[2] = Test System: AMES SALMONELLA TYPHIMURIUM, Strain/Indicator: TA97, Metabolic Activation: RAT, LIVER, S-9, AROCLOR 1254, Method: STANDARD PLATE
[3] = Test System: AMES SALMONELLA TYPHIMURIUM, Strain/Indicator: TA98, Metabolic Activation: NONE, Method: STANDARD PLATE
[4] = Test System: AMES SALMONELLA TYPHIMURIUM, Strain/Indicator: TA98, Metabolic Activation: RAT, LIVER, S-9, AROCLOR 1254, Method: STANDARD PLATE
[5] = Test System: AMES SALMONELLA TYPHIMURIUM, Strain/Indicator: TA100, Metabolic Activation: NONE, Method: STANDARD PLATE
[6] = Test System: AMES SALMONELLA TYPHIMURIUM, Strain/Indicator: TA100, Metabolic Activation: RAT, LIVER, S-9, AROCLOR 1254, Method: STANDARD PLATE
[7] = Test System: AMES SALMONELLA TYPHIMURIUM, Strain/Indicator: TA102, Metabolic Activation: RAT, LIVER, S-9, AROCLOR 1254, Method: STANDARD PLATE

Structure (SMILES)	mutagenic call [1]	mutagenic call [2]	mutagenic call (Test System: AMES SALMONELLA TYPHIMURIUM, Strain/Indicator: TA97A, Metabolic Activation: NONE, Method: STANDARD PLATE)	mutagenic call (Test System: AMES SALMONELLA TYPHIMURIUM, Strain/Indicator: TA97A, Metabolic Activation: RAT LIVER S-9, AROCLOR 1254, Method: STANDARD PLATE)	mutagenic call [3]	mutagenic call (Test System: AMES SALMONELLA TYPHIMURIUM, Strain/Indicator: TA98, Metabolic Activation: RAT LIVER S-9, AROCLOR 1254, Method: STANDARD PLATE)	mutagenic call [4]	mutagenic call [5]	mutagenic call (Test System: AMES SALMONELLA TYPHIMURIUM, Strain/Indicator: TA100, Metabolic Activation: RAT LIVER S-9, AROCLOR 1254, Method: STANDARD PLATE)	mutagenic call [6]	mutagenic call (Test System: AMES SALMONELLA TYPHIMURIUM, Strain/Indicator: TA102, Metabolic Activation: RAT LIVER S-9, AROCLOR 1254, Method: STANDARD PLATE)	mutagenic call [7]	mutagenic call (Test System: AMES SALMONELLA TYPHIMURIUM, Strain/Indicator: TA102, Metabolic Activation: NONE, Method: STANDARD PLATE)	mutagenic call (Test System: AMES SALMONELLA TYPHIMURIUM, Strain/Indicator: TA1535, Metabolic Activation: NONE, Method: STANDARD PLATE)	mutagenic call (Test System: AMES SALMONELLA TYPHIMURIUM, Strain/Indicator: TA1535, Metabolic Activation: RAT, LIVER, S-9, AROCLOR 1254, Method: STANDARD PLATE)	mutagenic call (Test System: AMES SALMONELLA TYPHIMURIUM, Strain/Indicator: TA1537, Metabolic Activation: NONE, Method: STANDARD PLATE)	mutagenic call (Test System: AMES SALMONELLA TYPHIMURIUM, Strain/Indicator: TA1537, Metabolic Activation: RAT, LIVER, S-9, AROCLOR 1254, Method: STANDARD PLATE)	mutagenic call (Test System: MOUSE LYMPHOMA, Strain/Indicator: L5178Y (TK+/TK-), Metabolic Activation: NONE, Method: SUSPENSION/PLATE)
COC1=CC(=O)c2c(nc(C)c3c2[nH]c2ccccc23)C1=O	active; positive	active; positive	active; positive	active; positive	active; positive	active; positive	active; positive	active; positive	active; positive	active; positive	inactive; negative	inactive; negative	–	–	–	–	–	–
Clc1cccnc1Cl	inactive; negative	active; positive	–	–	inactive; negative	–	inactive; negative	inactive; negative	–	–	–	inactive; negative	inactive; negative	–	–	–	–	–
CN(C)CCCN1c2ccccc2CCc2ccccc21	–	–	–	–	inactive; negative	–	inactive; negative	inactive; negative	–	inactive; negative	–	–	–	inactive; negative	inactive; negative	inactive; negative	inactive; negative	–
O=c1[nH]c(=O)c2[nH]cnc2[nH]1	–	–	–	–	–	–	–	–	–	–	–	–	–	–	–	–	–	inactive; negative
